Data as given in US8067424B2, “Selective inhibitors for cyclin-dependent kinases” (Emory University, priority 2007, dated 2011).
pIC50: −log10 of the molar value. Read-outs that look alike come from different tables or passages of the source.

Experiments:
CDK2-Cyclin A = CDK2-Cyclin A (Homo sapiens, UniProt P24941); experiment: Kinase screen: CDK2/cyclin A assay; type: biochemical
Description: Generally, the same procedure was used for all assays.
(§1) The basic procedure was to add 0.5 microliters inhibitor/control in DMSO to plate. Fifteen microliters of enzyme/substrate/buffer mix were added and incubated for 5 min. Ten microliters MgATP at the relevant concentration were added and incubated for 30 min. The assay was stopped by adding 5 microliters of 3% orthophosphoric acid. The assay was transferred to a p81 filter plate and read in a scintillation counter of 30 sec/well. Note that this assay procedure was not followed for MKK1, which instead involved a two-step assay, and PKC alpha, which required the addition of lipid vesicles.
CDK2/cyclin A assay: CDK2/cyclin A (5-20 mU diluted in 50 mM Hepes pH 7.5, 1 mM DTT, 0.02% Brij35, 100 mM NaCl) was assayed against Histone H1 in a final volume of 25.5 μl containing 50 mM Hepes pH7.5, 1 mM DTT, 0.02% Brij35, 100 mM NaCl, Histone H1 (1 mg/ml), 10 mM magnesium acetate and 0.02 mM [33P-g-ATP] (500-1000 cpm/pmole) and incubated for 30 min at room temperature. Assays were stopped by addition of 5 μl of 0.5 M (3%) orthophosphoric acid and then harvested onto P81 Unifilter plates with a wash buffer of 50 mM orthophosphoric acid.

PAK4 = PAK4 (Homo sapiens, UniProt O96013); experiment: Kinase screen: PAK4 assay; type: biochemical
Description: Generally, the same procedure was used for all assays. Since the total assay volume was 25.5 microliters, 0.5 microliters of inhibitors at 51× assay concentration were added to the plates before any other addition.
as §1
PAK4 assay: PAK4 (5-20 mU diluted in 50 mM Tris pH 7.5, 0.1 mM EGTA, 0.1% b-mercaptoethanol, 1 mg/ml BSA) was assayed against a substrate peptide ([…]) (SEQ ID NO: 30) in a final volume of 25.5 μl containing 50 mM Tris pH 7.5, 0.05% b-mercaptoethanol, 300 μM substrate peptide, 10 mM magnesium acetate and 0.005 mM [33P-g-ATP] (50-1000 cpm/pmole) and incubated for 30 min at room temperature. Assays were stopped by addition of 5 μl of 0.5 M (3%) orthophosphoric acid and then harvested onto P81 Unifilter plates with a wash buffer of 50 mM orthophosphoric acid.

[1] = molecular target: T1, CDK7 complex (CDK7, Cyclin H, MAT1) (Homo sapiens, UniProt P50613); experiment: CDK7/CycH/MAT1 trimeric complex kinase assay (PKLight luciferase); type: biochemical; conditions: 100 nM; mean of three (standard deviation); read-out: CDK7 % remaining kinase activity after incubation with 100 nM of compound
T1 construct: purchased Proqinase GmbH, Germany
Summary of the method: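 Compound was preincubated with the kinase for 30 min at 30 °C; the reaction then ran for 20 min at 30 °C with 2 μM ATP final. Remaining ATP was measured by PKLight luciferase luminescence at 560 nm. Values were corrected against the no-enzyme control and expressed relative to enzyme-only activity (100%), in triplicate.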

CDK2/cyclin A complex = molecular target: T2, CDK2/cyclin A complex (Homo sapiens, UniProt P24941); experiment: CDK2/cyclin A kinase assay (as for CDK7); type: biochemical; conditions: for remaining activity at 0.1 µM: 100 nM, mean of three (standard deviation), read-out: CDK2 % remaining kinase activity after incubation with 100 nM of compound; for pIC50: Table 7, mean of three experiments, read-out: CDK2 kinase inhibition in vitro (IC50)
T2 construct: purchased Proqinase GmbH, Germany
Summary of the method: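 Run as the CDK7 protocol with 50 ng CDK2/cyclin A or 100 ng CDK9/cyclin T; compound 30 min at 30 °C, then 2 μM ATP final for 20 min at 30 °C. ATP depletion by luciferase luminescence (PKLight), triplicate, normalised to no-enzyme and enzyme controls.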

SR = conditions: for Mean Optical Densities / Percent Growth: SR
SF-268 = experiment: cells; conditions: Homo sapiens
U251 = experiment: cells; conditions: Homo sapiens
T-47D = experiment: cells; conditions: Homo sapiens, T47D
[2] = 10 micromolar compound, read-out: mean activity remaining (as a percentage of the original activity), CDK 2 - Cyelin A
[3] = 10 micromolar compound, read-out: mean activity remaining (as a percentage of the original activity), PAK4
[4] = MOLT-4, log10 concentration −4.0
[5] = MOLT-4, log10 concentration −6.0
[6] = MOLT-4, log10 concentration −7.0
[7] = MOLT-4, log10 concentration −8.0
[8] = MDA-MB-435, log10 concentration −4.0
[9] = MDA-MB-435, log10 concentration −5.0
[10] = MDA-MB-435, log10 concentration −6.0
[11] = MDA-MB-435, log10 concentration −7.0
[12] = MDA-MB-435, log10 concentration −8.0

Sequence of PAK4 (O96013 whole entry, species assumed): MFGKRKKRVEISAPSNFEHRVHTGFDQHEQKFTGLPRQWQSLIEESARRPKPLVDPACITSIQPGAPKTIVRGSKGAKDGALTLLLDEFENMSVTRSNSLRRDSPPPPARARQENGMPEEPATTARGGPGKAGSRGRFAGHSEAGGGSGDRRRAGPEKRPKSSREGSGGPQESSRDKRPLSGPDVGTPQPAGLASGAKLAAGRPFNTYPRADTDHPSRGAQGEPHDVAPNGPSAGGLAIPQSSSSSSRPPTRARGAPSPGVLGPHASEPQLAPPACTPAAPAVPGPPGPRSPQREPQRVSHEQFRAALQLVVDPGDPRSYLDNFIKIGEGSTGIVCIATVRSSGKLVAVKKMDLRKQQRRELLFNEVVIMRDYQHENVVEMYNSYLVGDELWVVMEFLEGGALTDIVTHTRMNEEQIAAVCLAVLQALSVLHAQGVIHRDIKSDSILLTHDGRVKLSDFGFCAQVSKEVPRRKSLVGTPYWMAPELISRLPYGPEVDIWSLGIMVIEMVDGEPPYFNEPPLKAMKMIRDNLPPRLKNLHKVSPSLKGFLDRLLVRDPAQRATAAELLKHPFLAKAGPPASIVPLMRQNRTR
T1 sequence (P50613 whole entry): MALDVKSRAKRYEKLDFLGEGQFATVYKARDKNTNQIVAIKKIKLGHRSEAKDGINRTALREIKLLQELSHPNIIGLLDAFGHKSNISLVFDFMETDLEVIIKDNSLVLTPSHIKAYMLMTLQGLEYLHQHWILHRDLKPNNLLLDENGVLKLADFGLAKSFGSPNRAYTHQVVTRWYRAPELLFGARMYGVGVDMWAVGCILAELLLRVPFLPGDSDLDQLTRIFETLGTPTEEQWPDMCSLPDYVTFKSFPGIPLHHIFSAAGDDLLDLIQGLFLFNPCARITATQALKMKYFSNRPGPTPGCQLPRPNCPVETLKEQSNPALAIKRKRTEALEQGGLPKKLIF
T1 sequence (P51946 whole entry partner): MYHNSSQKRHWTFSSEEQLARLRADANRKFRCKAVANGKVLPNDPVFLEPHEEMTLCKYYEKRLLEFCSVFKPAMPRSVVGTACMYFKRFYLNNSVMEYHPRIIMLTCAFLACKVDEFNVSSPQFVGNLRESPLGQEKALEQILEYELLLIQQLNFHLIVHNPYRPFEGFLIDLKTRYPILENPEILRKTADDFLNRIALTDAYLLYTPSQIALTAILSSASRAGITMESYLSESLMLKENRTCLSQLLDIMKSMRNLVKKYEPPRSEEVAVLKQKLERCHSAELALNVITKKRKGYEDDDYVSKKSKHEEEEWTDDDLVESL
T1 sequence (P51948 whole entry partner): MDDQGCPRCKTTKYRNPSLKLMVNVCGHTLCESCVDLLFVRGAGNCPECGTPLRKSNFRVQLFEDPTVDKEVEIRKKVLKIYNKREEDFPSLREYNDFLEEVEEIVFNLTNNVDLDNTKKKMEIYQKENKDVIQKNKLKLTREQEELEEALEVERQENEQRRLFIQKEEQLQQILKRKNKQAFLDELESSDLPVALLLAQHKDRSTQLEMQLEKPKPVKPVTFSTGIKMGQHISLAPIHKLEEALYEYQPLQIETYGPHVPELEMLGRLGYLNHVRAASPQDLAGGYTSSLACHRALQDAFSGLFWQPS

CC(C)c1cnn2c(NCc3ccccc3F)cc(NCCCCCN)nc12 [ICEC-0232]
mean activity remaining (as a percentage of the original activity), CDK 2 - Cyelin A (CDK2-Cyclin A; 10 micromolar compound): 9%
mean activity remaining (as a percentage of the original activity), PAK4 (PAK4; 10 micromolar compound): 58%

CC(C)c1cnn2c(NCc3ccccc3)cc(NCCCCCCCN)nc12 [BS-181]
remaining activity at 10 µM (CDK2-Cyclin A; CDK2-Cyclin A, 10 μM, read-out: Mean Remaining Enzyme Activity (%)): 9%
pIC50 (CDK2-Cyclin A; kinase screen): 6.12
remaining activity at 10 µM (PAK4; PAK4, 10 μM, read-out: Mean Remaining Enzyme Activity (%)): 75%

CC[C@H](CO)Nc1cc(NCc2ccccc2)n2ncc(C(C)C)c2n1 [ICEC0067]
remaining activity at 0.1 µM [1]: 49%
remaining activity at 0.1 µM (CDK2/cyclin A complex): 100%
pIC50 (CDK2/cyclin A complex): < 6.00
remaining activity at 10 µM (CDK2-Cyclin A; [2]): 5%
remaining activity at 10 µM (PAK4; [3]): 75%

C=C[C@H](CO)Nc1cc(NCc2ccccc2)n2ncc(C(C)C)c2n1 [ICEC0065]
remaining activity at 0.1 µM [1]: 80%
remaining activity at 0.1 µM (CDK2/cyclin A complex): 95%
pIC50 (CDK2/cyclin A complex): < 6.00
remaining activity at 10 µM (CDK2-Cyclin A; [2]): 3%
remaining activity at 10 µM (PAK4; [3]): 82%

CC(C)c1cnn2c(NCc3ccccc3)cc(N[C@@H](CO)[C@H](O)CO)nc12 [ICEC0318, (3S)-3-(7-(Benzylamino)-3-isopropylpyrazolo[1,5-a]pyrimidin-5-ylamino)butane-1,2,4-triol]
remaining activity at 10 µM (PAK4; [3]): 55%
TGI (MOLT-4; MOLT-4 (Leukemia)): >1.00E−4
Mean Optical Densities (MOLT-4; [4]): 0.449
Percent Growth (MOLT-4; [4]): 15%
Mean Optical Densities (MOLT-4; MOLT-4, log10 concentration −5.0): 0.329
Mean Optical Densities (MOLT-4; [5]): 0.368
Percent Growth (MOLT-4; [5]): 5%
Mean Optical Densities (MOLT-4; [6]): 0.987
Percent Growth (MOLT-4; [6]): 82%
Mean Optical Densities (MOLT-4; [7]): 1.072
Percent Growth (MOLT-4; [7]): 92%
TGI (SR; SR (Leukemia)): >1.00E−4
Mean Optical Densities (SR; log10 concentration −4.0): 0.239
Percent Growth (SR; log10 concentration −4.0): 7%
Mean Optical Densities (SR; log10 concentration −5.0): 0.244
Percent Growth (SR; log10 concentration −5.0): 8%
Mean Optical Densities (SR; log10 concentration −6.0): 0.275
Percent Growth (SR; log10 concentration −6.0): 16%
Mean Optical Densities (SR; log10 concentration −7.0): 0.394
Percent Growth (SR; log10 concentration −7.0): 45%
Mean Optical Densities (SR; log10 concentration −8.0): 0.548
Percent Growth (SR; log10 concentration −8.0): 83%
TGI (MDA-MB-435; MDA-MB-435 (Breast Cancer)): 1.15E−5
Mean Optical Densities (MDA-MB-435; [8]): 0.242
Percent Growth (MDA-MB-435; [8]): −48%
Mean Optical Densities (MDA-MB-435; [9]): 0.511
Percent Growth (MDA-MB-435; [9]): 3%
Mean Optical Densities (MDA-MB-435; [10]): 0.659
Percent Growth (MDA-MB-435; [10]): 13%
Mean Optical Densities (MDA-MB-435; [11]): 1.781
Percent Growth (MDA-MB-435; [11]): 86%
Mean Optical Densities (MDA-MB-435; [12]): 2.132
Percent Growth (MDA-MB-435; [12]): 109%
GI50 (SF-268; SF-268): 326 nM
CC50 (SF-268; SF-268, read-out: LC50): > 100000 nM
GI50 (U251; U-251): 261 nM
CC50 (U251; U-251, read-out: LC50): > 100000 nM
GI50 (T-47D): 305 nM
CC50 (T-47D; read-out: LC50): > 100000 nM
